Source: paper PMC6470533, “Structure–Activity Study, Characterization, and Mechanism of Action of an Antimicrobial Peptoid D2 and Its D- and L-Peptide Analogues” (Molecules, 2019)
Converted amounts (≈) assume the structure as drawn. Non-standard residues stand in square brackets, D forms with d. Residues, ends and D or L forms follow the SMILES beside them. N(1-naphthylmethyl)Gly = O=C(O)CNCc1cccc2ccccc12; d1Nal = N[C@H](Cc1cccc2ccccc12)C(=O)O; N(4-MeBn)Gly = Cc1ccc(CNCC(=O)O)cc1; dNle = CCCC[C@@H](N)C(=O)O; NBuGly = CCCCNCC(=O)O; Nlys = NCCCCNCC(=O)O

How the values were obtained:
MRSP ST71 strain E104 = assay: Growth curve analysis (BioScreen); format: cell-based, Staphylococcus pseudintermedius; details: at the MIC, MRSP E104, OD600, 6 h, 37 °C
Procedure: First, we performed growth curve analysis using the well-characterized MRSP ST71 strain E104, which is resistant to a number of antibiotics. […] A well-characterized antimicrobial peptide, nisin, was used as control. […] Increased concentrations of nisin inhibited proportionally the growth of E104, both at sub-MIC and MIC concentrations.
The effect of D2 or analogues or nisin on the growth of MRSP strain E104 was evaluated using BioScreen (Oy Growth Curves Ab LTd, Helsinki, Finland). Freshly grown culture of E104 was diluted to OD 0.2 at 600 nm, supplemented with increased concentration of antimicrobials and distributed in a 100 well honeycomb micro-plate with volume 100 μL. The plate was incubated for 6 h at 37 °C with continuous shaking. The OD600 of each micro-culture was measured and recorded every 15 min after a 5 s pause of shaking in automatic mode. Recorded OD was plotted against time to prepare the growth curves. Experiment was performed twice and one representative result was presented.

[1] = tested on: Methicillin resistant Staphylococcus pseudintermedius, (C22963); format: cell-based; details: 18 h
red blood cell (RBC) = details: 0.5% RBC suspension in PBS, 1 h, 37 °C, read at 414 nm, normalized to mellitin and PBS, triplicates
Procedure: Briefly, 75 µL of peptide in PBS was mixed with 75 µL of a 0.5% red blood cell (RBC) suspension in PBS, and incubated for 1 h at 37 °C. The hemoglobin release was then measured at 414 nm and normalized, using mellitin as positive control and PBS as negative control. Experiments were done in triplicates.

Proteus mirabilis, 25178 = format: cell-based; details: 25178, 18 h
Procedure: (§1) To explore the antimicrobial activity of the library of peptides and peptidomimetics, they were tested against Acinetobacter baumannii, Corynebacterium auriscanis, Escherichia coli, Enterococcus faecalis, Enterococcus faecium, Klebsiella pneumonia, Proteus mirabilis, and Pseudomonas aeruginosa. Bacteria grown on agar plates for 18 h at 37 °C were diluted to ~1 × 10^8 CFU/mL in Mueller–Hinton broth (MHB). Two-fold serial dilutions of peptides and peptidomimetics in MHB II were inoculated with bacteria to achieve a final concentration of 5 × 10^5 CFU/mL in polypropylene 96 U-well microtiter plates (Almeco, Esbjerg, Denmark), followed by incubation at 37 °C in ambient air for 18 h. The MIC values were determined as the lowest concentration showing no visible bacterial growth. Experiments were performed twice (in technical triplicates) on two different days.

[2] = tested on: Enterococcus faecium, 30951; format: cell-based; details: 30951, 18 h
Procedure: as §1

[3] = tested on: Corynebacterium auriscanis, 31551; format: cell-based; details: 18 h
Procedure: as §1

[4] = tested on: Klebsiella pneumoniae, 26233; format: cell-based; details: 26233, 18 h
Procedure: as §1

[5] = tested on: P. aeruginosa isolates from canine infections; format: cell-based, Pseudomonas aeruginosa
Procedure: as §1

[6] = tested on: Staphylococcus aureus (ATCC 29213); format: cell-based; details: ATCC 29213, 18 h
[7] = tested on: Methicillin sensitive Staphylococcus pseudintermedius (26916); format: cell-based; details: 18 h
S. aureus = assay: MIC against canine clinical S. aureus strains (Table S2); format: cell-based, Staphylococcus aureus; details: for MIC S. aureus 25054: 25054, 8 G6, dog, 2009; for MIC S. aureus 25054 / MIC S. aureus 28264 / MIC S. aureus 36968: wound; for MIC S. aureus 27266: 27266, 16 G9, dog, 2010; for MIC S. aureus 27266 / MIC S. aureus 37708-2 / MIC S. aureus 38200 / MIC S. aureus 38565-1: skin; for MIC S. aureus 28264: 28264, 20 B1, dog, 2011; for MIC S. aureus 30935: 30935, 24 B9, dog, 2013; for MIC S. aureus 30935 / MIC S. aureus 37595: joint; for MIC S. aureus 36968: 36968, 61 A9, dog; for MIC S. aureus 36968 / MIC S. aureus 37595 / MIC S. aureus 37708-2 / MIC S. aureus 38200: 2016; for MIC S. aureus 37595: 37595, 65 D2, dog; for MIC S. aureus 37708-2: 37708-2, 66 C6, dog; for MIC S. aureus 38200: 38200, 68 E9, dog; for MIC S. aureus 38565-1: 38565-1, 70 A5, dog; for MIC S. aureus 38565-1 / MIC S. aureus 38841: 2017; for MIC S. aureus 38841: 38841, 70 G5, dog, urine
Procedure: (§2) Similarly, in this study, to assess the degree of selectivity for S. pseudintermedius, D2 and D2D were tested against a collection of S. aureus and MSSP strains (Table S2).
as §1

[8] = tested on: cell wall synthesis in MRSP E104; assay: Macromolecule biosynthesis assay, cell wall (3H-glucosamine hydrochloride); format: cell-based, Staphylococcus pseudintermedius; details: 0.5× MIC, 20 min incubation, MRSP E104, 3H-glucosamine hydrochloride; means of two experiments
Procedure: The effect on DNA and cell wall synthesis was investigated after 20 min of incubation of MRSP E104 with the precursors ^3H-thymidine and ^3H-glucosamine hydrochloride, respectively, as previously reported by Ling et al.. Following macromolecule precipitation, radioactivity was counted using scintillation fluid. Incorporation of ^3H- or ^14C-labeled thymidine has been used to investigate DNA replication and transcriptional activity during the cell cycle; ^3H-glucosamine hydrochloride has been used in a mode of action study for the antimicrobial peptide plectasin, which targets the cell wall precursor lipid II [44].
Macromolecules (DNA and cell wall) biosynthesis rates were measured using strain MRSP E104 following a protocol adapted from Ling et al.. Briefly, overnight culture of E104 was diluted 1:100 in MHB and freshly grown up to OD 0.2 at 600 nm. Grown cells were pelleted down by centrifugation and then resuspended in fresh MHB medium followed by incubation for 20 min on a dry heat-bath with D2 or analogues or nisin and radiolabeled precursor: (50 µCi) ^3H-Thymidine (PerkinElmer) and (5 µCi) ^3H-glucosamine hydrochloride per mL for DNA and cell wall, respectively. A positive control without antimicrobials was maintained that corresponds to 100% synthesis rate. After 20 min of incubation, samples were precipitated with equal volume of cold 30% trichloroactic acid (TCA Sigma, Søborg, Denmark) on ice. After 15 to 30 min of incubation on ice, precipitates were filtered on a membrane filter and subsequently washed twice with cold 15% TCA and twice with cold water using a vacuum manifold. Next, filters were air dried overnight and then moved to 10 mL scintillation vials. Finally, 3 mL scintillation fluid was added to each vial and ^3H count was taken in Beckman Coulter LS6500 liquid scintillation counter for 1 min. The radioactive counts of the control samples with no antimicrobial exposure were considered to have 100% precursor incorporation and macromolecule synthesis. The percentage rates of macromolecule synthesis in the antimicrobial-exposed samples were calculated compared to control. Each experiment was performed twice with a technical replicate, and the average rates of synthesis were plotted.

S. pseudintermedius = assay: MIC against canine clinical S. pseudintermedius strains (Table S2); format: cell-based, Staphylococcus pseudintermedius; details: for MIC S. pseudintermedius 22963: 22963, 3 B9, dog, 2007; for MIC S. pseudintermedius 26071: 26071, 11 E5, dog; for MIC S. pseudintermedius 26071 / MIC S. pseudintermedius 26092-2 / MIC S. pseudintermedius 33228 / MIC S. pseudintermedius 37526-1 / MIC S. pseudintermedius 37535-1: skin; for MIC S. pseudintermedius 26071 / MIC S. pseudintermedius 26092-2: 2009; for MIC S. pseudintermedius 26092-2: 26092-2, 11 E4, dog; for MIC S. pseudintermedius 26959: 26959, 15 F8, dog, 2010; for MIC S. pseudintermedius 26959 / MIC S. pseudintermedius 27364: wound; for MIC S. pseudintermedius 27364: 27364, 17 A7, dog; for MIC S. pseudintermedius 27364 / MIC S. pseudintermedius 27382: 2011; for MIC S. pseudintermedius 27382: 27382, 17 B8, dog; for MIC S. pseudintermedius 27382 / MIC S. pseudintermedius 31524 / MIC S. pseudintermedius 35890: ear; for MIC S. pseudintermedius 31524: 31524, 54 C3, dog, 2013; for MIC S. pseudintermedius 33228: 33228, 55 E2, dog, 2014; for MIC S. pseudintermedius 35890: 35890, 59 B8, dog, 2015; for MIC S. pseudintermedius 37526-1: 37526-1, 65 B4, dog; for MIC S. pseudintermedius 37526-1 / MIC S. pseudintermedius 37535-1: 2016; for MIC S. pseudintermedius 37535-1: 37535-1, 65 B6, dog; for MIC S. pseudintermedius 38637: 38637, 70 C3, dog, wound 2017; for MIC S. pseudintermedius 38820: 38820, 70 F9, dog, urine 2017
Procedure: as §2, §1

E. coli, 30235 = format: cell-based, Escherichia coli; details: 30235, 18 h
Procedure: as §1

SMILES	growth curve, change of cell optical density over time (MRSP ST71 strain E104)	MIC MRSP [1] [µg/mL]	HA, percentage of hemolysis at 150 µM (red blood cell (RBC)) [%]	MIC Proteus mirabilis (Proteus mirabilis, 25178) [µg/mL]	MIC Enterococcus faecium [2] [µg/mL]	MIC Corynebacterium auriscanis [3] [µg/mL]	MIC Klebsiella pneumoniae [4] [µg/mL]	MIC SA [6] [µg/mL]	MIC MSSP [7] [µg/mL]	MIC S. aureus 25054 (S. aureus) [µg/mL]	MIC S. aureus 27266 (S. aureus) [µg/mL]	MIC S. aureus 28264 (S. aureus) [µg/mL]	MIC S. aureus 30935 (S. aureus) [µg/mL]	MIC S. aureus 36968 (S. aureus) [µg/mL]	MIC S. aureus 37595 (S. aureus) [µg/mL]	MIC S. aureus 37708-2 (S. aureus) [µg/mL]	MIC S. aureus 38200 (S. aureus) [µg/mL]	MIC S. aureus 38565-1 (S. aureus) [µg/mL]	MIC S. aureus 38841 (S. aureus) [µg/mL]	effect on (inhibition of) cell wall synthesis [8] [%]	other results
CCCC[C@@H](NC(=O)[C@@H](CCCCN)NC(=O)[C@@H](Cc1cccc2ccccc12)NC(=O)[C@@H](CCCCN)NC(=O)[C@@H](Cc1ccccc1)NC(=O)[C@@H](Cc1cccc2ccccc12)NC(=O)[C@@H](CCCCN)NC(=O)[C@H](N)CCCCN)C(N)=O [D2D] (H-[dK][dK][d1Nal][dF][dK][d1Nal][dK][dNle]-NH2)	cell lysis	4 (≈ 3.38 µM)	35	>64	4 (≈ 3.38 µM)	2 (≈ 1.69 µM)	8 (≈ 6.75 µM)	4 (≈ 3.38 µM)	1 to 4	2 (≈ 1.69 µM)	2 (≈ 1.69 µM)	4 (≈ 3.38 µM)	2 (≈ 1.69 µM)	4 (≈ 3.38 µM)	2 (≈ 1.69 µM)	4 (≈ 3.38 µM)	2 (≈ 1.69 µM)	2 (≈ 1.69 µM)	4 (≈ 3.38 µM)	39	MICs against canine P. aeruginosa isolates ([5]; isolates from canine infections, 18 h): 4 µg/mL; MIC S. pseudintermedius 22963 (S. pseudintermedius): 2 µg/mL (≈ 1.69 µM); MIC S. pseudintermedius 26071 (S. pseudintermedius): 1 µg/mL (≈ 0.844 µM); MIC S. pseudintermedius 26092-2 (S. pseudintermedius): 1 µg/mL (≈ 0.844 µM); MIC S. pseudintermedius 26959 (S. pseudintermedius): 2 µg/mL (≈ 1.69 µM); MIC S. pseudintermedius 27364 (S. pseudintermedius): 2 µg/mL (≈ 1.69 µM); MIC S. pseudintermedius 27382 (S. pseudintermedius): 2 µg/mL (≈ 1.69 µM); MIC S. pseudintermedius 31524 (S. pseudintermedius): 2 µg/mL (≈ 1.69 µM); MIC S. pseudintermedius 33228 (S. pseudintermedius): 2 µg/mL (≈ 1.69 µM); MIC S. pseudintermedius 35890 (S. pseudintermedius): 2 µg/mL (≈ 1.69 µM); MIC S. pseudintermedius 37526-1 (S. pseudintermedius): 2 µg/mL (≈ 1.69 µM); MIC S. pseudintermedius 37535-1 (S. pseudintermedius): 2 µg/mL (≈ 1.69 µM); MIC S. pseudintermedius 38637 (S. pseudintermedius): 2 µg/mL (≈ 1.69 µM); MIC S. pseudintermedius 38820 (S. pseudintermedius): 2 µg/mL (≈ 1.69 µM); MIC E. coli (E. coli, 30235): 4 µg/mL (≈ 3.38 µM)
CCCCN(CC(N)=O)C(=O)CN(CCCCN)C(=O)CN(Cc1cccc2ccccc12)C(=O)CN(CCCCN)C(=O)CN(Cc1ccc(C)cc1)C(=O)CN(Cc1cccc2ccccc12)C(=O)CN(CCCCN)C(=O)CNCCCCN [D2] (H-[Nlys][Nlys][N(1-naphthylmethyl)Gly][N(4-MeBn)Gly][Nlys][N(1-naphthylmethyl)Gly][Nlys][NBuGly]-NH2)	cell lysis	4 (≈ 3.34 µM)	24	>64	16 (≈ 13.3 µM)	2 (≈ 1.67 µM)	>64	8 (≈ 6.67 µM)	2 to 4	4 (≈ 3.34 µM)	8 (≈ 6.67 µM)	4 (≈ 3.34 µM)	4 (≈ 3.34 µM)	4 (≈ 3.34 µM)	4 (≈ 3.34 µM)	8 (≈ 6.67 µM)	4 (≈ 3.34 µM)	4 (≈ 3.34 µM)	8 (≈ 6.67 µM)	28	MIC range, panel of 50 P. aeruginosa isolates ([5]; 50 isolates from canine infections): 3.12 to 12.5 µM; MIC S. pseudintermedius 22963 (S. pseudintermedius): 1 to 2 µg/mL; MIC S. pseudintermedius 26071 (S. pseudintermedius): 1 µg/mL (≈ 0.834 µM); MIC S. pseudintermedius 26092-2 (S. pseudintermedius): 1 µg/mL (≈ 0.834 µM); MIC S. pseudintermedius 26959 (S. pseudintermedius): 2 µg/mL (≈ 1.67 µM); MIC S. pseudintermedius 27364 (S. pseudintermedius): 1 µg/mL (≈ 0.834 µM); MIC S. pseudintermedius 27382 (S. pseudintermedius): 1 µg/mL (≈ 0.834 µM); MIC S. pseudintermedius 31524 (S. pseudintermedius): 1 µg/mL (≈ 0.834 µM); MIC S. pseudintermedius 33228 (S. pseudintermedius): 1 µg/mL (≈ 0.834 µM); MIC S. pseudintermedius 35890 (S. pseudintermedius): 1 µg/mL (≈ 0.834 µM); MIC S. pseudintermedius 37526-1 (S. pseudintermedius): 1 µg/mL (≈ 0.834 µM); MIC S. pseudintermedius 37535-1 (S. pseudintermedius): 1 µg/mL (≈ 0.834 µM); MIC S. pseudintermedius 38637 (S. pseudintermedius): 1 µg/mL (≈ 0.834 µM); MIC S. pseudintermedius 38820 (S. pseudintermedius): 1 µg/mL (≈ 0.834 µM); MIC E. coli (E. coli, 30235): 64 µg/mL (≈ 53.4 µM)
